Legend:
[1] = system: rabbit eyes; test: Ophthalmic observations (slit lamp, McDonald Shadduck) in the rabbit IOP study; assay type: in vivo, New Zealand White rabbits; set-up: key to Cornea Score: 1: Some loss of transparency. Only the epithelium and/or the anterior half of the stoma are involved. The underlying structures are clearly visible although some cloudiness may be readily apparent; key to Conjunctival congestion Score: A flushed, reddish color predominantly confined to the palpebral conjunctiva with some perilimbal injection but primarily confined to the lower and upper parts of the eye from the 4:00 to 7:00 and 11:00 to 1:00 positions; conditions: for Conjunctival congestion Score: individual rabbit; for Ophthalmic Observation (Slit-Lamp): individual rabbits; for Ocular finding associated with unilateral topical instillation: four times daily up to 31 days, BOL-303242-X 0.05, 0.25 or 0.5 mg/dose, dexamethasone 0.05 mg/dose
Experimental: On Days 1-31, animals received daily topical doses of the appropriate test article into the right eye. Animals were dosed four times per day, with doses administered 2 hours apart. Doses were administered using a calibrated 50-μL pipette. The eyelids were held close for 10 seconds immediately following dosing. The time of each dose administration was recorded.
Ophthalmic examinations (slit lamp) were performed prior to the first dosing on Days 5, 12, 22, 26, and 33. Ocular findings were scored according to the McDonald Shadduck system and recorded using a standardized data collection sheet.

[2] = system: myocilin protein in CM of monkey TM cells; test: Myocilin protein in conditioned media of monkey TM cells (Western blot); assay type: cell-based, rhesus monkeys (Macaca mulatta); conditions: for Effect on myocilin concentrations in CM: 3 to 300 nM, second 48-hour treatment period
Experimental: All animal procedures were in accordance with the ARVO (Association for Research in Vision and Ophthalmology) resolution on animal care. Eyes from freshly killed, healthy rhesus monkeys (Macaca mulatta), obtained from Lonza (Walkersville, Md.), were transported in CO2-independent medium on ice, and processed approximately 40 hours post-enucleation. Following removal of iris, lens, and the bulk of the ciliary body, opercula (an anatomical feature of monkey TM) were stripped from anterior segment quadrants. Using fine scissors, strips of TM were excised, and subdivided TM fragments were explanted to multiwell plates containing growth medium (described below) and incubated with Cytodex-3 gelatin-coated beads (Sigma Chemical Company, St. Louis, Mo.). The beads attach to the explants within hours and provide additional substrate area for out-migration of cells. Proliferating TM cells colonize additional beads and also “spill” onto the tissue culture plastic and form colonies. After several days, the original TM explants and beads were transferred to new wells, generating additional primary cultures. Subconfluent monolayers of cells on tissue culture plastic were passed from 12-well plates to 35- or 60-mm dishes using a Collagenase-Dispase (Roche Applied Bioscience, Indianapolis, Ind.). Second- or third-passage subcultures were finally harvested enzymatically as above, and the cells were counted and cryopreserved in liquid nitrogen.
For each study, up to nine TM cell strains, each derived from an individual monkey, were tested separately. Cells were thawed and seeded into 12- or 48-well clusters (Falcon, BD Biosciences; 150,000 and 30,000 cells/well, respectively) in proliferation medium. When cells were 75% to 90% confluent proliferation medium was replaced by a 5:4 mixture of HESFM and Dulbecco's MEM, respectively, supplemented with 10% FBS, with added taurine, ascorbic acid phosphate, glutathione, and antibiotic as for proliferation medium (above), and with 2.72 g/L glucose and 1.72 g/L fructose. At confluence, the medium was changed to Dulbecco's MEM, containing 10% FBS^40, ascorbic acid phosphate, antibiotic, 2.72 g/L glucose and 1.72 g/L fructose. Cells were maintained as stable, confluent monolayers in this latter medium for 4 to 7 days before experimental treatments commenced.
All treatments, including media for vehicle control samples, contained a final DMSO concentration of 0.1% (v/v) across the concentration ranges selected. Treatments lasted 96 hours, with one exchange of medium on the third treatment day. The final 48-hr conditioned media (“CM”) samples were collected in their entirety (0.5 ml), centrifuged briefly to remove particulates, aliquoted, and stored at −20° C. until thawed for analysis.
Undiluted CM was combined with denaturing 4× sample buffer containing 2% SDS, and samples were loaded at equivalent protein content onto 4-20% Tris-HCl polyacrylamide gels (BioRad, Hercules, Calif.). After electrophoresis, proteins underwent wet transfer to […] nitrocellulose (BioRad) for immunoblotting. The filters were blocked with 5% (w/v) nonfat dry milk (BioRad) in Tris-buffered saline plus 0.02% (v/v) Tween-20 (“TBST”; Tween-20 from Calbiochem, San Diego, Calif.), and incubated with a 1:2000 dilution (from 200 μg/ml) of goat anti-recombinant human myocilin antibody (R&D Systems, Minneapolis, Minn.) in blocking buffer, overnight at 4° C. […]

[3] = 1 mg/g BOL-303242-X 4 x daily, treated right eye, Day 22
[4] = 5 mg/g BOL-303242-X 4 x daily, treated right eye, Day 5
[5] = 5 mg/g BOL-303242-X 4 x daily, treated right eye, Day 22
[6] = 5 mg/g BOL-303242-X 4 x daily, treated right eye, Day 22, 26
[7] = 5 mg/g BOL-303242-X 4 x daily, treated right eye, Day 26
[8] = 10 mg/g BOL-303242-X 4 x daily, treated right eye, Day 5, 12
[9] = 10 mg/g BOL-303242-X 4 x daily, treated right eye, Day 12
[10] = 10 mg/g BOL-303242-X 4 x daily, treated right eye, Day 26
[11] = 0.1% Dexamethasone 4 x daily, treated right eye, Day 5
[12] = 0.1% Dexamethasone 4 x daily, treated right eye, Day 22

Cc1ccc2c(NCC(O)(CC(C)(C)c3cc(F)cc4c3OCC4)C(F)(F)F)cccc2n1 (centres unmarked) [BOL-303242-X]
Conjunctival congestion Score [1, 3]: 1 | Ophthalmic Observation (Slit-Lamp) [1, 3]: Conjunctival congestion | Slit-lamp ophthalmic finding ([1]; 1 mg/g suspension, dosed right eye (Group D, No. 3043)): subconjunctival hemorrhage | Conjunctival congestion Score [1, 4]: 1 | Conjunctival congestion Score [1, 5]: 1 | Conjunctival congestion Score [1, 6]: 1 | Conjunctival congestion Score [1, 7]: 1 | Ophthalmic Observation (Slit-Lamp) [1, 4]: Conjunctival congestion | Ophthalmic Observation (Slit-Lamp) [1, 5]: Conjunctival congestion | Ophthalmic Observation (Slit-Lamp) [1, 6]: Conjunctival congestion | Ophthalmic Observation (Slit-Lamp) [1, 7]: Conjunctival congestion | Conjunctival congestion Score [1, 8]: 1 | Conjunctival congestion Score [1, 9]: 1 | Conjunctival congestion Score [1, 10]: 1 | Ophthalmic Observation (Slit-Lamp) ([1]; 10 mg/g BOL-303242-X 4 x daily, treated right eye, Day 5): Surface area of cornea involvement | Ophthalmic Observation (Slit-Lamp) [1, 8]: Conjunctival Congestion | Ophthalmic Observation (Slit-Lamp) [1, 9]: Conjunctival Congestion | Ophthalmic Observation (Slit-Lamp) [1, 10]: Conjunctival Congestion | Surface area of cornea involvement Score ([1]; 10 mg/g BOL-303242-X 4 x daily, treated right eye, rabbit 3083, Day 5): 1 (1-25% area of stromal cloudiness.) | Cornea Score ([1]; 10 mg/g BOL-303242-X 4 x daily, treated right eye, rabbit 3083, Day 5, pinpoint corneal scar): 1^(2) | Slit-lamp ophthalmic finding ([1]; 10 mg/g suspension, dosed right eye (Group B, No. 3083)): pinpoint corneal scar | Ocular finding associated with unilateral topical instillation [1]: sporadic mild conjunctival congestion | Levels of myocilin protein released by cultured monkey TM cells, compared to DEX [2]: significantly lower levels | Effect on myocilin concentrations in CM [2]: increased myocilin concentrations in a dose-dependent manner | Maximal efficacy for myocilin accumulation in CM, relative to DEX treatment ([2]; computed across all nine TM cells strains): about 50% | Activity on myocilin gene expression ([2]; monkey TM cells, compared with DEX at high doses): partial agonist activity

C[C@@H]1C[C@H]2[C@@H]3CCC4=CC(=O)C=C[C@]4(C)[C@@]3(F)[C@@H](O)C[C@]2(C)[C@@]1(O)C(=O)CO [dexamethasone, reference compound]
Conjunctival congestion Score [1, 11]: 1 | Conjunctival congestion Score [1, 12]: 1 | Ophthalmic Observation (Slit-Lamp) [1, 11]: Conjunctival Congestion | Ophthalmic Observation (Slit-Lamp) [1, 12]: Conjunctival Congestion | Ocular finding associated with unilateral topical instillation [1]: sporadic mild conjunctival congestion | Effect on myocilin concentrations in CM [2]: increased myocilin concentrations in a dose-dependent manner
